In one assay the target is T1, human RORγ (Homo sapiens, UniProt P51449).
T1 construct: from Ser253 to Lys518 for human RORγ; expressed in transfected cells; host or cells: CHO cells (transient co-transfection with pG5-Luc)
T1 sequence (P51449 253-518): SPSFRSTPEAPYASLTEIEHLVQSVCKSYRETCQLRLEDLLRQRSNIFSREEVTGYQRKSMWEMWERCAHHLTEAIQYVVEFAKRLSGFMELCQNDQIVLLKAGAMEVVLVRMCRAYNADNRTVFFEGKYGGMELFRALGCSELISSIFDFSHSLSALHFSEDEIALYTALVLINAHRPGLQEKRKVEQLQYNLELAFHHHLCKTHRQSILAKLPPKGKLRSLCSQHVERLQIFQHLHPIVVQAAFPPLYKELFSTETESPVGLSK
The assay is described as follows: In-vitro reporter gene assay for inhibitory activity against RORγ transcription, Test Method A (GAL4-hRORγ LBD / pG5-Luc in CHO cells). Type of assay: cell-based. The note with it: luciferase reporter, 2 days. The procedure:
(§1) In-Vitro Assay for Inhibitory Activity Against RORγ Transcription
(§2) Inhibitory activity against RORγ transcription was assessed for test compounds by either of the following Test Method A or B of reporter gene assay.
(§3) cDNAs encoding human and mouse RORγ ligand binding domains (LBD) were obtained based on the sequences of human RORγ (Genbank registered number NM_005060.3) and mouse RORγ (Genbank registered number NM_011281.2) (LBD sequences: from Ser253 to Lys518 for human RORγ; from Ile251 to Lys516 for mouse RORγ).
(§4) LBD cDNAs of human and mouse RORγ were inserted into pFA-CMV vector (Stratagene), which expresses GAL4-DNA binding domain fusion protein. The resulting plasmids are hereinafter referred to as GAL4-hRORγ plasmid and GAL4-mRORγ plasmid, respectively.
(§5) GAL4-hRORγ plasmid or GAL4-mRORγ plasmid was transiently co-transfected into Chinese hamster ovary cells (CHO cells) with pG5-Luc (Promega), reporter plasmid expressing firefly luciferase in a GAL4-dependent manner.
(§6) TransIT (Registered trademark) CHO Transfection Kit (Mirus) was used to co-transfect CHO cells with the plasmids. One day prior to the assay, CHO cells were suspended in HAM F-12 Nutrient medium containing 10% (v/v) fetal bovine serum and seeded at 6×10^6 cells per 175 cm^2 cell culture flask each. 54 μL of TransIT (Registered trademark) CHO reagent was added into a 15 mL tube containing 1.16 mL of HAM F-12 Nutrient medium without fetal bovine serum, and then mixed and incubated at room temperature for 10 minutes. 36 μL of a plasmid solution containing 400 ng of GAL4-hRORγ plasmid, 9000 ng of pG5-Luc plasmid, and 8600 ng of pcDNA3 plasmid were added into the tube and mixed gently. In the case of mouse assay, a plasmid solution containing 250 ng of GAL4-mRORγ plasmid, 9000 ng of pG5-Luc plasmid, and 8750 ng of pcDNA3 plasmid was added, instead. The mixture was incubated at room temperature for 10 minutes. 9 μL each of CHO Mojo Reagent were then added into each tube and mixed gently. The mixture was incubated at room temperature for 10 minutes. The resulting transfection reagent was applied to the cell culture. After incubation at 37° C., 5% CO2 for 4 hours, the plasmid-transfected CHO cells were harvested by trypsin treatment. The collected cells were resuspended in culture medium and plated into a 384-well-white plate at 8,000 cells/50 μL/well. The plate was let stand at room temperature for 1 hour and then further incubated at 37° C., 5% CO2 for 3 hours. A test compound was dissolved in DMSO to obtain a concentration of 10 mM. Each solution was serially diluted with DMSO and further diluted with culture medium just before use. The test compound solutions were added. to the cells in the plate at 8 different concentrations. The final concentration of DMSO was 0.2% (v/v). After the addition of test compound, the cells were incubated at […], 5% CO2 for 2 days.
(§7) RORγ transcriptional activity was detected as the intracellular luciferase activity using SteadyLite HTS Reporter Gene Assay System (Perkin Elmer). SteadyLite Reagent was diluted five-fold with Extension buffer (10 mM Tricine, 0.2% (w/v) bovine serum albumin, 0.02% (v/v) Tween-20) to obtain a luciferase substrate solution. After the measurement of the cell viability with Resazurin, the medium was removed in the plate and the luciferase substrate solution was added thereto. After the incubation at room temperature for 10 minutes, luminescence of each well was measured with a microplate reader. The luciferase activity derived from the luminescence count in a vehicle-control well treated with 0.2% DMSO alone was defined as 100%, and the luciferase activity after treatment with the test compound was calculated as a percentage, %-of-control, based on the value of the vehicle-control. An EC50 value of the test compound was calculated by curve fitting with GraphPad Prism. The luminescence counts at the concentration of test compound where cytotoxicity was observed were excluded from data analysis. […]
(In general: In a reporter assay the amount or activity of a reporter protein is the signal.)

Another assay concerns the target T2, mouse RORγ (Mus musculus, UniProt P51450).
T2 construct: from Ile251 to Lys516 for mouse RORγ; expressed in transfected cells; host or cells: CHO cells (transient co-transfection with pG5-Luc)
T2 sequence (P51450 251-516): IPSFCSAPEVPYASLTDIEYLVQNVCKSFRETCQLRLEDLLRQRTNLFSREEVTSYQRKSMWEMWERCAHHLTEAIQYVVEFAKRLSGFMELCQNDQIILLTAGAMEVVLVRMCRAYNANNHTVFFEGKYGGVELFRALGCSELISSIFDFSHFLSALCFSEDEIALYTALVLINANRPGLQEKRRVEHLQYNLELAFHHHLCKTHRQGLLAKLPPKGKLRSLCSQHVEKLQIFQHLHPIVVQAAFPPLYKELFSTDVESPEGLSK
The assay is described as follows: In-vitro reporter gene assay for inhibitory activity against RORγ transcription, Test Method A (GAL4-mRORγ LBD / pG5-Luc in CHO cells). It counts as cell-based. The note with it: luciferase reporter, 2 days. On the procedure:
as §1, §2, §3, §4, §5, §6, §7

As a reminder, the EC50 is the midpoint of the concentration-response curve. Low readings indicate an effect from little substance, high ones a need for much substance.

Molecules are shown by their SMILES.

Consider `CC(=O)N1CC2=CN(CCC(=O)O)C(=O)NC2(c2ccc(CCC(C)(C)C)c(Cl)c2)C1` (racemic) [Example 14], for which the figures for the EC50 at human RORγ and at mouse RORγ were 2.88 µM and 3.8 µM, respectively.

Turning to `COCC1CCCC2(c3ccc(CCC(C)(C)C)c(Cl)c3)NC(=O)N(CCC(=O)O)C=C12` (racemic) [Example 56], the EC50 was 0.02 µM on human RORγ and 0.029 µM at mouse RORγ.

For `CC1CCCC2(c3ccc(CCC(C)(C)C)c(Cl)c3)NC(=O)N(CCC(=O)O)C=C12` (racemic) [Example 57], the EC50 on human RORγ came out at 0.034 µM; on mouse RORγ, 0.021 µM.

For `C[C@@H]1CC2=CN(CCC(=O)O)C(=O)NC2(c2ccc(CCC(C)(C)C)c(Cl)c2)CO1` (single isomer, unassigned) [Example 71], the concentration giving a half-maximal response (EC50) at human RORγ was 0.01 µM; at mouse RORγ, 0.007 µM.

As to `CC(C)(C)CCc1ccc(C23CCCC(CO)C2=CN(CCC(=O)O)C(=O)N3)cc1Cl` (racemic) [Example 55], the EC50 at human RORγ worked out at 0.093 µM; at mouse RORγ it was 0.058 µM.

Consider `CC(C)(C)COc1ccc(C23CCCCC2=CN(CCC(=O)O)C(=O)N3)cc1Cl` (racemic) [Example 60], for which the EC50 came to 0.118 µM at human RORγ and 0.072 µM on mouse RORγ.

In the case of `CC1CC[C@]2(c3ccc(CCC(C)(C)C)c(Cl)c3)NC(=O)N(CCC(=O)O)C=C2C1` (single isomer, unassigned) [Example 80], the EC50 on human RORγ and on mouse RORγ was more than 10 µM each time.

Consider `CC(C)(C)CCc1ccc([C@@]23CCCCC2=CN(CCC(=O)O)C(=O)N3)cc1Cl` (single isomer, unassigned) [Example 41], for which the EC50 stood at 0.017 µM at human RORγ and 0.013 µM on mouse RORγ.

Turning to `CC(C)(C)CCc1ccc(C23CCC(C)(C)C2=CN(CCC(=O)O)C(=O)N3)cc1Cl` (single isomer, unassigned) [Example 3, 3-{7a-[3-Chloro-4-(3,3-dimethyl-butyl)phenyl]-5,5-dimethyl-2-oxo-1,2,5,6,7,7a-hexahydro-cyclopentapyrimidin-3-yl}propionate], the EC50 on human RORγ is 0.008 µM; at mouse RORγ, 0.013 µM.

For `CCOC(=O)CCN1C=C2C(CCNC)CCCC2(c2ccc(CCC(C)(C)C)c(Cl)c2)NC1=O` (racemic) [Example 49], the EC50 on human RORγ and on mouse RORγ was more than 3.2 µM in each case.

Turning to `CC(C)(C)COc1ccc(C23CCCCC2=NNC(=O)N3)cc1Cl` (racemic) [Example 36], the EC50 on human RORγ amounted to 0.435 µM; on mouse RORγ, 0.071 µM.

With `CC(C)(C)CCc1ccc(C23COC(COC(C)(C)C)C2=CN(CCC(=O)O)C(=O)N3)cc1Cl` (single isomer, unassigned) [Example 21], the figures for the EC50 on human RORγ and on mouse RORγ were 2.26 µM and 1.27 µM, respectively.

With `CCOC(=O)CCN1C=C2CN(C(=O)OC(C)(C)C)CC2(c2ccc(CCC(C)(C)C)c(Cl)c2)NC1=O` (racemic) [Example 13], the EC50 stood at 5.7 µM at human RORγ and 5.37 µM on mouse RORγ.

`CC(C)(C)CCc1ccc([C@]23COC(COCc4ccccc4)C2=CN(CCC(=O)O)C(=O)N3)cc1Cl` (single isomer, unassigned) [Example 15]: the EC50 on human RORγ and at mouse RORγ was more than 8 µM in each case.

Turning to `C[C@@H]1CCC2(c3ccc(CCC(C)(C)C)c(Cl)c3)NC(=O)N(CCC(=O)O)C=C12` (single isomer, unassigned) [Example 12], the EC50 at human RORγ was 2.58 µM; at mouse RORγ, 3.43 µM.

As to `CC1CCC[C@]2(c3ccc(CCC(C)(C)C)c(Cl)c3)NC(=O)N(C34CC(C(=O)O)(C3)C4)C=C12` (single isomer, unassigned) [Example 78], the 50% effective concentration (EC50) is 2.2 µM on human RORγ and more than 3.2 µM on mouse RORγ.

Take `CC(C)(C)CCc1ccc(C23COCCC2=CN(CCC(=O)O)C(=O)N3)cc1Cl` (racemic) [Example 58]: the values for the EC50 at human RORγ and at mouse RORγ were 0.033 µM and 0.02 µM, respectively.

For the molecule `CCOC(=O)CCN1C=C2C(CC(=O)O)CCCC2(c2ccc(CCC(C)(C)C)c(Cl)c2)NC1=O` (racemic) [Example 45], the EC50 at human RORγ was found to be 1.63 µM; at mouse RORγ it was 0.84 µM.

These data come from patent US20220119355A1, “SATURATED-RING-FUSED DIHYDROPYRIMIDINONE OR DIHYDROTRIAZINONE COMPOUNDS AND PHARMACEUTICAL USE THEREOF” (Japan Tobacco Inc., priority 2018, published 2022).
